Literature values in patent publication US20140377346A1, “BOSENTAN CONTROLLED RELEASE ORAL PREPARATION” (HANALL BIOPHARMA CO., LTD., priority 2012, published 2014).
Read-outs that look alike come from different tables or passages of the source.

water needed to dissolve 0.1 mg of bosentan (pH 1.0): ≥ 100 mL
water needed to dissolve 0.1 mg of bosentan (pH 5.0): ≥ 50 mL
water needed to dissolve 0.1 mg of bosentan (pH 7.5): approximately 0.3 ml
Structure (SMILES): COc1ccccc1Oc1c(NS(=O)(=O)c2ccc(C(C)(C)C)cc2)nc(-c2ncccn2)nc1OCCO [bosentan, 4-tert-butyl-N-[6-(2-hydroxy-ethoxy)-5-(2-methoxy-phenoxy)-2-(pyrimidin-2-yl)-pyrimidin-4-yl]-benzenesulfonamide]
